Legend:
[1] = metabolites of Alprazolam; cited from earlier work
[2] = test system: serotonin reuptake process; conditions: relative to Sertraline; cited from earlier work
[3] = biological target: CYP2D6 isoenzyme (Homo sapiens, UniProt P10635); conditions: cited from earlier work; for activity over CYP2D6 isoenzyme compared with fluoxetine and its active metabolite: relative to fluoxetine and its active metabolite
[4] = test system: human serum proteins; conditions: cited from earlier work
[5] = clinical; conditions: human, in vivo, po
[6] = in vivo; cited from earlier work
[7] = human, in vivo, cited from earlier work
[8] = cited from earlier work

CYP2D6 isoenzyme, sequence (P10635 whole entry): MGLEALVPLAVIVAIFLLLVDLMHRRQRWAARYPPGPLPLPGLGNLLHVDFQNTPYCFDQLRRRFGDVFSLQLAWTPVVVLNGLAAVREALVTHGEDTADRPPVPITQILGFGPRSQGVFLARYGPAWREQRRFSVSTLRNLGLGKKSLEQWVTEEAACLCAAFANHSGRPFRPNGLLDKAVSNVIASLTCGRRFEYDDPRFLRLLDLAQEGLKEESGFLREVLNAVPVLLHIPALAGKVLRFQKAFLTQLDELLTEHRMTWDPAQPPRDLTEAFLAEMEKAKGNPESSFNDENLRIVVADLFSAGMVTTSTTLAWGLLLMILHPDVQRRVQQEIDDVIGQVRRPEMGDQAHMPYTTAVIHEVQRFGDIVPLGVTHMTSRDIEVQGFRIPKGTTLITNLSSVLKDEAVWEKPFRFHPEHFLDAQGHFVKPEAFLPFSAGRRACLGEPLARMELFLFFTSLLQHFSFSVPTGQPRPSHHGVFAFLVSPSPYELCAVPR

SMILES: OCc1nnc2n1-c1ccc(Cl)cc1C(c1ccccc1)=NC2 [alpha-hydroxy-Alprazolam]
- biological activity compared with therapeutic activity of Alprazolam [1]: about one half

SMILES: N[C@H]1CC[C@@H](c2ccc(Cl)c(Cl)c2)c2ccccc21 [DemethylSertraline]
- activity over serotonin reuptake process compared with unaltered drug [2]: eight times lower
- activity over CYP2D6 isoenzyme compared with fluoxetine and its active metabolite [3]: five to ten times lower

SMILES: O=C(c1ccccc1)c1ccccc1 [benzophenone]
- biological activity compared with therapeutic activity of Alprazolam [1]: essentially inactive

SMILES: Cc1nnc2n1-c1ccc(Cl)cc1C(c1ccccc1)=NC2 [Alprazolam]
- attached to human serum proteins [4]: 80%
- AUC(0-inf) [5]: 167 ± 53.1 ng·h/mL
- Cmax [5]: 12.6 ± 7.5 ng/mL
- Tmax [5]: 2.6 ± 1.4 h
- concentrations in steady state related with toxicity [6]: higher than 60 ng/mL
- time to maximum plasma concentrations ([7]; po): 1 to 2 h
- Plasma clearance half-life, range [7]: 6.3 to 26.9 h
- t1/2 (Clearance half-life) (human, in vivo, po): 11.3 ± 2.2 h

SMILES: CN[C@H]1CC[C@@H](c2ccc(Cl)c(Cl)c2)c2ccccc21 [Sertraline]
- variation coefficient of plasma concentrations ([8]; after delivering fixed doses): 38%
- dose recovered in urine and feces ([8]; oral administration, after seven days, 10080 min): 88%
- Plasma half-life ([8]; plasma): 22 to 30 h
- effect of Sertraline on Alprazolam kinetics (the two drugs administered in combination): does not significantly alter
- in vitro inhibition of CYP2D6 isoenzyme ([3]; in vitro): weak in vitro inhibition
- activity over CYP2D6 isoenzyme compared with fluoxetine and its active metabolite [3]: five to ten times lower
